Test in all cases: NCI anticancer screen, dose series, 48 h
The subject of experiment [1] is K-562 leukemia.
The test system of experiment [2] is A498 renal.
In experiment [3] the test system is CCRF-CEM leukemia.
Experiment [4] concerns SNB-19 CNS.
The test system of experiment [5] is COLO 205 colon.
Experiment [6] deals with NCI-H522 lung.
Experiment [7] deals with HCT-15 colon.
In experiment [8] the test system is MOLT-4 leukemia.
The subject of experiment [9] is SK-MEL-28 melanoma.
Experiment [10] concerns UO-31 renal.

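Where inhibition never reached the appropriate level, the endpoint shown equals the highest concentration tested. Otherwise, values were interpolated linearly from a five-concentration, 48-hour dose response in 96-well plates. At the GI50, growth is halved. Definition used: TGI = concentration required for complete inhibition of growth.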

For the molecule `COc1ccc(/C(=C(\c2ccccc2)[N+](=O)[O-])c2ccc(OCCN3CCCC3)cc2)cc1`, the GI50 is 1.1 µM in experiment [1]; 2.19 µM in experiment [2]; 5.19 µM in experiment [3]; 5.61 µM in [4]; 1.46 µM in [5]; 2.46 µM in experiment [6]. Moreover, the GI50 in experiment [7] was 1.49 µM; in [8] it was 2.65 µM; in experiment [9], 1.77 µM; in experiment [10], 1.12 µM. For the same molecule, the TGI was determined as 6.14 µM in experiment [1]; 10.9 µM in experiment [2]; 22.9 µM in experiment [3]; 18.6 µM in [4]; 3.14 µM in [5]; 9.62 µM in [6]. Further, the TGI in [7] amounted to 4.19 µM; in experiment [8] it was 10.5 µM; in experiment [9], 3.38 µM; in [10], 4.2 µM.
Consider `COc1cc(/C=N\Nc2ccccc2)ccc1OC(=O)c1ccccc1`, for which the GI50 in [1] was 0.369 µM; in [2] it was 20 µM; in experiment [3] it was 2.44 µM; in experiment [4], 19.8 µM; in [5], 6.48 µM; in experiment [6] it was 1.02 µM. Besides, the GI50 is 0.306 µM in [7], 1.94 µM in experiment [8], 19.2 µM in experiment [9] and 0.792 µM in experiment [10]. Further, the TGI in [1] is 11.8 µM; in experiment [2] it was > 92.9 µM; in experiment [3], > 100 µM; in experiment [4] it was > 100 µM; in [5], 25.5 µM; in [6] it was > 76.6 µM. Also, the TGI is 17.6 µM in experiment [7], > 100 µM in experiment [8], > 93.1 µM in experiment [9] and > 40.2 µM in experiment [10].
Regarding `CC1CCc2c(C(=O)Nc3ncc(Cc4cccc([N+](=O)[O-])c4)s3)csc2C1` (centres undefined), the GI50 in [1] was 0.213 µM; in experiment [2], 0.267 µM; in [3], 0.612 µM; in experiment [4], 0.678 µM; in [5] it was 0.37 µM; in experiment [6] it was 0.387 µM. The GI50 was 0.389 µM in experiment [7], 0.575 µM in experiment [8], 3.66 µM in experiment [9] and 0.815 µM in experiment [10]. The TGI was > 100 µM in experiment [1]; 0.864 µM in experiment [2]; > 100 µM in experiment [3]; > 100 µM in experiment [4]; 19.6 µM in experiment [5]; > 100 µM in [7]. Moreover, the TGI in experiment [8], in [9] and in [10] was > 100 µM throughout.
With `COc1cc(F)c(F)c(Nc2ccc(I)cc2F)c1NS(=O)(=O)C1(CC(O)CO)CC1` (centres undefined), the GI50 in experiment [1] is 15.7 µM; in [2], 10.1 µM; in [3] it was 19.8 µM; in experiment [4], 11 µM; in experiment [5] it was 3.43 µM; in [6], 11.5 µM. The GI50 in [7] is 14.6 µM; in experiment [8] it was 15.2 µM; in [9], 3.02 µM; in [10], 10.4 µM. Besides, the TGI in experiment [1] was > 81.7 µM; in experiment [2], 28.1 µM; in experiment [3], > 72.3 µM; in [4] it was 50.1 µM; in experiment [5], 16.1 µM; in [6] it was 29.9 µM. The TGI was 47.4 µM in experiment [7], 52.3 µM in [8], 13.7 µM in experiment [9] and 40.2 µM in experiment [10].
For the molecule `COC(=O)c1sc(-n2cnc3cc(OC)c(OC)cc32)cc1OCc1ccccc1C(F)(F)F`, the GI50 in [1] was > 25 µM; in experiment [2], 0.513 µM; in experiment [3], > 25 µM; in experiment [4], 24.9 µM; in experiment [5], > 25 µM; in [6], 17.7 µM. Moreover, the GI50 in [7], in experiment [8], in experiment [9] and in [10] was > 25 µM each time. Moreover, the TGI in experiment [1], in experiment [2], in experiment [3], in experiment [4], in experiment [5] and in experiment [6] was > 25 µM each time. Also, the TGI in experiment [7], in experiment [8], in [9] and in experiment [10] was > 25 µM each time.
For `OC[C@H]1C[C@](O)(c2ccccc2Cl)[C@@H](c2ccccc2Cl)O1`, the GI50 was 20 µM in experiment [1]; 22.9 µM in experiment [2]; 27.8 µM in experiment [3]; 31.7 µM in experiment [4]; 14.7 µM in experiment [5]; 13.4 µM in [6]. Moreover, the GI50 was 28.4 µM in experiment [7], 17.1 µM in [8], 26.4 µM in [9] and 23 µM in experiment [10]. Further, the TGI is 56.9 µM in experiment [1]; 59.2 µM in experiment [2]; > 100 µM in [3]; > 100 µM in [4]; 34.6 µM in [5]; 38.4 µM in experiment [6]. Moreover, the TGI was > 100 µM in experiment [7], 51.4 µM in experiment [8], 79.6 µM in experiment [9] and 57.4 µM in [10].

For the origin of these results see PubChem BioAssay (NCI).
